Measurements from article PMC5578075 (International Journal of Molecular Sciences, 2017).
Where two headings read alike, the source gives them in different places.

Biological target: T1, acetylcholinesterase from Electrophorus electricus (electric eel) (Electrophorus electricus, UniProt O42275)
T1 construct: purchased Sigma-Aldrich C2888
Assay: biochemical
Experimental: For the further detailed studies, samples of the individual flavonoids previously isolated from C. officinalis flowers were used. The acetylcholinesterase inhibition assay was performed using a spectrophotometric method. […] Additionally minor flavonoids of C. officinalis flowers were included for analysis such as 3-O-(2′′-acetyl)-glucosides, 3-O-(2′′,6′′-di-acetyl)-glucosides, 3-O-(3′′-rhamnosyl)-glucosides, 3-O-(4′′-rhamnosyl)-glucosides and 3-O-rhamnosides (Figure 3).
The acetylcholinesterase inhibition assay was performed using a spectrophotometric microplate assay. The reaction mixture consisted of 235.7 µL of 0.1 M phosphate buffer pH 7.4, 20 µL of a solution of acetylcholinesterase (final concentration 0.1 U/mL in 0.1 M phosphate buffer pH 7.4), 2.7 µL of test compound or plant extract solutions in dimethyl sulfoxide (DMSO). The controls contained the corresponding volume of DMSO of test compound solutions. The enzymatic reaction was initiated by the addition of 1.6 µL of α-naphthyl acetate solution in DMSO. After mixing for 90 s and incubation at 25 °C for 90 s, the reaction was stopped with 20 µL of a 5% solution of sodium dodecyl sulfate (SDS) in water. The color was developed with 20 µL of Fast Blue B salt solution (final concentration 0.17 mM in water). The method was realized in 96-well plates. The microplate was read by a Bio-Rad microplate reader Model 3550 UV. Enzyme activity and inhibition were quantified by determination of the absorbance at 600 nm after the formation of the purple-colored diazonium dye as a percentage. […] The percentage of inhibition was calculated relative to a control sample, for which the anti-acetylcholinesterase activity was assessed under identical conditions, but in the absence of the test compound, using the expression:% Inhibition = {[(ACE − AC) − (ATE − AT)]/(ACE − AC)} × 100% where ACE is the absorbance at 600 nm of the control sample with enzyme; AC is the absorbance at 600 nm of the control sample without enzyme; ATE is the absorbance at 600 nm of the test compound (or plant extract) with enzyme; AT is the absorbance at 600 nm of the test compound (or plant extract) without enzyme.

[1] = individual flavonoids, mean ± SD of three experiments, read-out: Anti-acetylcholinesterase activity, IC50
[2] = Anti-acetylcholinesterase activity, IC50, individual flavonoids, mean ± SD of three experiments

T1 sequence (O42275 24-633): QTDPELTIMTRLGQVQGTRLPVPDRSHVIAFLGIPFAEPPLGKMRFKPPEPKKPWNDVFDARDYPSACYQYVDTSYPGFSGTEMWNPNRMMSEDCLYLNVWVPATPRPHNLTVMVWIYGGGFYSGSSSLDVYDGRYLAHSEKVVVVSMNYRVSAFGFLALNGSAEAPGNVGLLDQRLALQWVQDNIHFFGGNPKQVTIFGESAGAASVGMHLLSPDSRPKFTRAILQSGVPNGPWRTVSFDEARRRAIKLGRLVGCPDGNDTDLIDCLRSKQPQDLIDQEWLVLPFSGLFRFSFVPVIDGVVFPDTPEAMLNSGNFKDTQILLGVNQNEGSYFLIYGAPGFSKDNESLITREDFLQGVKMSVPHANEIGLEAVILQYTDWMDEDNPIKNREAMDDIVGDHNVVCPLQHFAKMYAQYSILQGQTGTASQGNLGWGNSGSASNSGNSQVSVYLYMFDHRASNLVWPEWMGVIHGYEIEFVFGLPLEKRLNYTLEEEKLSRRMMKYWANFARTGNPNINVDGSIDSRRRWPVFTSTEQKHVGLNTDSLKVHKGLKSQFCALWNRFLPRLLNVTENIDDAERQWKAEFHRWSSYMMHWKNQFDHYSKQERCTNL

Structure (SMILES) | IC50 [1] [µM] | other results
COc1cc(-c2oc3cc(O)cc(O)c3c(=O)c2OC2OC(COC(C)=O)C(O)C(O)C2OC(C)=O)ccc1O (stereo not shown) [Isorhamnetin 3-O-(2″,6″-di-Ac)-Glcp, isorhamnetin-3-O-(2′′,6′′-di-acetyl)-glucoside] | 51.3 ± 1.53 | –
COc1cc(-c2oc3cc(O)cc(O)c3c(=O)c2OC2OC(COC3OC(C)C(O)C(O)C3O)C(O)C(O)C2OC2OC(C)C(O)C(O)C2O)ccc1O (stereo not shown) [Isorhamnetin 3-O-(2″,6″-di-Rhap)-Glcp, isorhamnetin-3-O-(2′′,6′′-di-rhamnosyl)-glucoside] | 98.5 ± 3.04 | –
COc1cc(-c2oc3cc(O)cc(O)c3c(=O)c2OC2OC(CO)C(O)C(O)C2OC(C)=O)ccc1O (stereo not shown) [Isorhamnetin 3-O-(2″-Ac)-Glcp, isorhamnetin-3-O-(2′′-acetyl)-glucoside] | 70.9 ± 1.84 | –
COc1cc(-c2oc3cc(O)cc(O)c3c(=O)c2OC2OC(CO)C(O)C(O)C2OC2OC(C)C(O)C(O)C2O)ccc1O (stereo not shown) [Isorhamnetin 3-O-(2″-Rhap)-Glcp, isorhamnetin-3-O-(2′′-rhamnosyl)-glucoside] | 94.3 ± 2.82 | –
COc1cc(-c2oc3cc(O)cc(O)c3c(=O)c2OC2OC(CO)C(O)C(OC3OC(C)C(O)C(O)C3O)C2O)ccc1O (stereo not shown) [Isorhamnetin 3-O-(3″-Rhap)-Glcp, isorhamnetin-3-O-(3′′-rhamnosyl)-glucoside] | 91.2 ± 2.73 | –
COc1cc(-c2oc3cc(O)cc(O)c3c(=O)c2OC2OC(CO)C(OC3OC(C)C(O)C(O)C3O)C(O)C2O)ccc1O (stereo not shown) [Isorhamnetin 3-O-(4″-Rhap)-Glcp, isorhamnetin-3-O-(4′′-rhamnosyl)-glucoside] | 92.1 ± 2.85 | –
COc1cc(-c2oc3cc(O)cc(O)c3c(=O)c2OC2OC(COC(C)=O)C(O)C(O)C2O)ccc1O (stereo not shown) [Isorhamnetin 3-O-(6″-Ac)-Glcp, isorhamnetin-3-O-(6′′-acetyl)-glucoside] | 68.2 ± 1.71 | –
COc1cc(-c2oc3cc(O)cc(O)c3c(=O)c2O[C@@H]2O[C@H](CO[C@@H]3O[C@@H](C)[C@H](O)[C@@H](O)[C@H]3O)[C@@H](O)[C@H](O)[C@H]2O)ccc1O [Isorhamnetin 3-O-(6″-Rhap)-Glcp, isorhamnetin-3-O-rutinoside] | 97.3 ± 2.91 | –
COc1cc(-c2oc3cc(O)cc(O)c3c(=O)c2OC2OC(CO)C(O)C(O)C2O)ccc1O (stereo not shown) [Isorhamnetin 3-O-Glcp, isorhamnetin-3-O-glucoside] | 89 ± 2.49 | –
COc1cc(-c2oc3cc(O)cc(O)c3c(=O)c2OC2OC(C)C(O)C(O)C2O)ccc1O (stereo not shown) [Isorhamnetin 3-O-Rhap, isorhamnetin-3-O-rhamnoside] | 74 ± 2.14 | –
COc1cc(-c2oc3cc(O)cc(O)c3c(=O)c2O)ccc1O [Isorhamnetin, 3,5,7,4′-tetrahydroxy-3′-methoxyflavone] | – | IC50 [2]: 24.2 ± 0.74 µM
[Cl-].[Na+] [NaCl, reference compound] | – | Anti-acetylcholinesterase activity of the negative control, in words (negative control): inactive
CC(=O)OCC1OC(Oc2c(-c3ccc(O)c(O)c3)oc3cc(O)cc(O)c3c2=O)C(OC(C)=O)C(O)C1O (stereo not shown) [Quercetin 3-O-(2″,6″-di-Ac)-Glcp, quercetin-3-O-(2′′,6′′-di-acetyl)-glucoside] | 36.5 ± 1.02 | –
CC1OC(OCC2OC(Oc3c(-c4ccc(O)c(O)c4)oc4cc(O)cc(O)c4c3=O)C(OC3OC(C)C(O)C(O)C3O)C(O)C2O)C(O)C(O)C1O (stereo not shown) [Quercetin 3-O-(2″,6″-di-Rhap)-Glcp, quercetin-3-O-(2′′,6′′-di-rhamnosyl)-glucoside] | 94.9 ± 2.65 | –
CC(=O)OC1C(Oc2c(-c3ccc(O)c(O)c3)oc3cc(O)cc(O)c3c2=O)OC(CO)C(O)C1O (stereo not shown) [Quercetin 3-O-(2″-Ac)-Glcp, quercetin-3-O-(2′′-acetyl)-glucoside] | 48 ± 1.2 | –
CC1OC(OC2C(Oc3c(-c4ccc(O)c(O)c4)oc4cc(O)cc(O)c4c3=O)OC(CO)C(O)C2O)C(O)C(O)C1O (stereo not shown) [Quercetin 3-O-(2″-Rhap)-Glcp, quercetin-3-O-(2′′-rhamnosyl)-glucoside] | 71.9 ± 1.94 | –
CC1OC(OC2C(Oc3c(-c4ccc(O)c(O)c4)oc4cc(O)cc(O)c4c3=O)OC(C)C(O)C(O)C2O)C(O)C(O)C1O (stereo not shown) [Quercetin 3-O-(2″-Rhap)-Rhap, quercetin-3-O-(2′′-rhamnosyl)-rhamnoside] | 67.9 ± 1.76 | –
CC1OC(OC2C(O)C(CO)OC(Oc3c(-c4ccc(O)c(O)c4)oc4cc(O)cc(O)c4c3=O)C2O)C(O)C(O)C1O (stereo not shown) [Quercetin 3-O-(3″-Rhap)-Glcp, quercetin-3-O-(3′′-rhamnosyl)-glucoside] | 69.1 ± 1.84 | –
CC1OC(OC2C(CO)OC(Oc3c(-c4ccc(O)c(O)c4)oc4cc(O)cc(O)c4c3=O)C(O)C2O)C(O)C(O)C1O (stereo not shown) [Quercetin 3-O-(4″-Rhap)-Glcp, quercetin-3-O-(4′′-rhamnosyl)-glucoside] | 70.3 ± 1.9 | –
CC(=O)OCC1OC(Oc2c(-c3ccc(O)c(O)c3)oc3cc(O)cc(O)c3c2=O)C(O)C(O)C1O (stereo not shown) [Quercetin 3-O-(6″-Ac)-Glcp, quercetin-3-O-(6′′-acetyl)-glucoside] | 45.2 ± 1.12 | –
C[C@@H]1O[C@@H](OC[C@H]2O[C@@H](Oc3c(-c4ccc(O)c(O)c4)oc4cc(O)cc(O)c4c3=O)[C@H](O)[C@@H](O)[C@@H]2O)[C@H](O)[C@H](O)[C@H]1O [Quercetin 3-O-(6″-Rhap)-Glcp, quercetin-3-O-rutinoside] | – | IC50 [2]: 72.1 ± 2.04 µM
O=c1c(O[C@@H]2O[C@H](CO)[C@@H](O)[C@H](O)[C@H]2O)c(-c2ccc(O)c(O)c2)oc2cc(O)cc(O)c12 [Quercetin 3-O-Glcp, quercetin-3-O-glucoside] | – | IC50 [2]: 70.1 ± 1.82 µM
CC1OC(Oc2c(-c3ccc(O)c(O)c3)oc3cc(O)cc(O)c3c2=O)C(O)C(O)C1O (stereo not shown) [Quercetin 3-O-Rhap, quercetin-3-O-rhamnoside] | – | IC50 [2]: 48.8 ± 1.26 µM
CN(C)C(=O)Oc1cccc([N+](C)(C)C)c1 [neostigmine, neostigmine bromide, reference compound] | – | IC50 (AChA, IC50 (anti-acetylcholinesterase activity), total extracts of C. officinalis flowers, mean ± SD of five experiments): 3.36 µM; IC50 [2]: 3.37 µM
